Values of other authors, collected in patent publication US9321030B2, “Clay-containing thin films as carriers of absorbed molecules” (priority 2012, dated 2016).

Experiments:
[1] = test system: multi-drug resistant strains of gram-positive and gram-negative bacteria; conditions: clinically relevant multi-drug resistant strains
[2] = test system: Pseudomonas aeruginosa biofilms
[3] = test system: Mycobacterium tuberculosis
S. aureus ATCC 12600 = conditions: known value

| Substance | efficacy against planktonic cells [1] | activity against biofilms [2] | activity [3] | minimum inhibitory concentration (S. aureus ATCC 12600) |
| --- | --- | --- | --- | --- |
| H—(NLys-Nspe-Nspe)4-NH2 [Peptoid 1] | demonstrated efficacy | active | active | – |
| gentamicin | – | – | – | 1 mg/L |
